# From patent US20200016231A1, “BIOFILM DISRUPTING COMPOSITION” (Whiteley Corporation Pty Ltd, priority 2016, published 2020)
# Read-outs that look alike come from different tables or passages of the source.
# Key:
# [1] = tested on: Pseudomonas aeruginosa; assay: Biofilm viability, resazurin assay, Pseudomonas aeruginosa clinical isolates; format: cell-based; conditions: read-out: % bacterial viability; for viability at 10000 µM: GSH 10 mM; for viability at 15000 µM: GSH 15 mM; for viability at 30000 µM: GSH 30 mM
# [2] = tested on: methicillin-sensitive Staphylococcus aureus; assay: microbe, parasite or virus in culture; format: cell-based; conditions: MSSA
# Experimental: The treatments shown in column 1 of Table 4 were tested against three strains of methicillin-sensitive Staphylococcus aureus. […] The treatments shown in column 1 of Table 12 were tested against three strains of methicillin-sensitive Staphylococcus aureus.
# [3] = tested on: E. cloacae; assay: Biofilm viability, resazurin assay, Enterobacter species: E. cloacae; format: cell-based; conditions: read-out: % bacterial viability; for viability at 10000 µM: GSH 10 mM; for viability at 15000 µM: GSH 15 mM; for viability at 30000 µM: GSH 30 mM
# Experimental: (§1) Bacterial isolates were grown in Tryptone Soya Broth (TSB) medium for 24 hours at 37° C., in a shaking incubator set at 150 rpm. After this time the organisms were harvested by centrifugation (5000×g, 5 min at 10° C.). After centrifugation, the supernatant liquid was removed and the bacterial pellet was suspended in 1×Phosphate Buffered Saline (PBS). To initiate biofilm growth, the bacterial suspension from PBS was immediately re-suspended in TSB and 250 μL of bacterial cell suspension (OD600=0.5±0.05) were added into the wells of 96-well plates (Corning Corp. USA) and incubated at 37° C. for 48 h at 150 r.p.m.
# (§2) After 24 h, treated biofilms supernatant were replaced with 200 μL of 1×PBS, followed by addition of 15 μL of a 0.05% w/v solution of resazurin (Sigma-Aldrich), and incubated further at 37° C., 150 r.p.m.
# (§3) After a further 24 h, the fluorescent intensity of the biofilm was determined at Ex544 nm and Em590 nm (Tecan infinite M1000 pro microplate reader). Results are plotted as percentage (%) of bacterial vaiability calculated based on fluorescent intensity. Control or untreated bacterial biofilm fluorescent intensity always considered as 100% bacterial viability and % viability under rest of treatment conditions were calculated with reference to control.
# (§4) It should be noted that the Resazurin assay works by recording fluorescence intensity and depends upon two factors (total number of bacteria and total number of viable bacteria in a given biofilm sample).
# (§5) The treatments shown in column 1 of Table 8 were tested against three clinical isolates of Enterobacter species.
# [4] = tested on: E aerogenes; assay: Biofilm viability, resazurin assay, Enterobacter species: E aerogenes; format: cell-based; conditions: E aerogenes 359475 Sternum, read-out: % bacterial viability
# Experimental: as §1, §2, §3, §4, §5
# [5] = tested on: Escherichia coli; assay: Biofilm viability, resazurin assay, Escherichia coli clinical isolates; format: cell-based; conditions: read-out: % bacterial viability; for viability at 10000 µM: GSH 10 mM; for viability at 15000 µM: GSH 15 mM; for viability at 30000 µM: GSH 30 mM
# Experimental: as §1, §2, §3, §4
# The treatments shown in column 1 of Table 9 were tested against three clinical isolates of Enterobacter species.
# [6] = tested on: Streptococcus pyogenes; assay: Biofilm viability, resazurin assay, Streptococcus pyogenes clinical isolates; format: cell-based; conditions: read-out: % bacterial viability; for viability at 10000 µM: GSH 10 mM; for viability at 15000 µM: GSH 15 mM; for viability at 30000 µM: GSH 30 mM
# Experimental: as §1, §2, §3, §4
# The treatments shown in column 1 of Table 10 were tested against three clinical isolates of Enterobacter species. The treatments used are given in column 1, and the % bacterial viability for each strain tested are given in the subsequent columns (see also FIG. 9).
# [7] = tested on: biofilms; conditions: GSH at 30 milli Molar; also non-Pseudomonad organisms (FIGS. 1-13)
# Experimental: as §1, with “r.p.m. […]” for “r.p.m.”
# as §3, §4
# [8] = tested on: methicillin-resistant Staphylococcus aureus; assay: microbe, parasite or virus in culture; conditions: MRSA
# [9] = tested on: Multidrug resistant Acinetobacter Baumannii, (MRAB); assay: microbe, parasite or virus in culture
# [10] = E. cloacae 359315 Left foot wound
smiles,measurement,setting,value
"N[C@@H](CCC(=O)N[C@@H](CS)C(=O)NCC(=O)O)C(=O)O [GSH, glutathione]",viability at 10000 µM,[1]; 364077 Scalp wound,95.6%
same,viability at 15000 µM,[1]; 364077 Scalp wound,93%
same,viability at 30000 µM,[1]; 364077 Scalp wound,30.3%
same,viability at 10000 µM,[1]; 365707 Left ankle wound,104%
same,viability at 15000 µM,[1]; 365707 Left ankle wound,101%
same,viability at 30000 µM,[1]; 365707 Left ankle wound,11.2%
same,viability at 10000 µM,[1]; PA0053 DFU,89.8%
same,viability at 15000 µM,[1]; PA0053 DFU,74.5%
same,viability at 30000 µM,[1]; PA0053 DFU,7.3%
same,viability at 10000 µM,"[2]; read-out: % bacterial viability, MSSA - 0800 DFU, GSH 10 mM",82.4%
same,viability at 15000 µM,"[2]; read-out: % bacterial viability, MSSA - 0800 DFU, GSH 15 mM",61.7%
same,viability at 30000 µM,"[2]; read-out: % bacterial viability, MSSA - 0800 DFU, GSH 30 mM",20.1%
same,viability at 10000 µM,"[2]; read-out: % bacterial viability, MSSA - 34397 Left elbow, GSH 10 mM",88.7%
same,viability at 15000 µM,"[2]; read-out: % bacterial viability, MSSA - 34397 Left elbow, GSH 15 mM",61.3%
same,viability at 30000 µM,"[2]; read-out: % bacterial viability, MSSA - 34397 Left elbow, GSH 30 mM",1.06%
same,viability at 10000 µM,"[2]; read-out: % bacterial viability, MSSA - 34654 Right toe, GSH 10 mM",86.1%
same,viability at 15000 µM,"[2]; read-out: % bacterial viability, MSSA - 34654 Right toe, GSH 15 mM",70.5%
same,viability at 30000 µM,"[2]; read-out: % bacterial viability, MSSA - 34654 Right toe, GSH 30 mM",15.3%
same,viability at 10000 µM,[3]; E. cloacae 357768 Ear,62.8%
same,viability at 15000 µM,[3]; E. cloacae 357768 Ear,38.9%
same,viability at 30000 µM,[3]; E. cloacae 357768 Ear,0%
same,viability at 10000 µM,[3]; [10],84.7%
same,viability at 15000 µM,[3]; [10],74%
same,viability at 30000 µM,[3]; [10],19.5%
same,viability at 10000 µM,[4]; GSH 10 mM,79%
same,viability at 15000 µM,[4]; GSH 15 mM,55.1%
same,viability at 30000 µM,[4]; GSH 30 mM,14.6%
same,viability at 10000 µM,[5]; 362805 Exit,75.7%
same,viability at 15000 µM,[5]; 362805 Exit,71.8%
same,viability at 30000 µM,[5]; 362805 Exit,0.7%
same,viability at 10000 µM,[5]; 365714 Wound,108%
same,viability at 15000 µM,[5]; 365714 Wound,93.4%
same,viability at 30000 µM,[5]; 365714 Wound,12.3%
same,viability at 10000 µM,[5]; 366290 Drain fluid,69.8%
same,viability at 15000 µM,[5]; 366290 Drain fluid,68.7%
same,viability at 30000 µM,[5]; 366290 Drain fluid,3.9%
same,viability at 10000 µM,[6]; 361194 Left leg boil,55.6%
same,viability at 15000 µM,[6]; 361194 Left leg boil,35.8%
same,viability at 30000 µM,[6]; 361194 Left leg boil,4.3%
same,viability at 10000 µM,[6]; 371982 Skin Wound,99.8%
same,viability at 15000 µM,[6]; 371982 Skin Wound,90.2%
same,viability at 30000 µM,[6]; 371982 Skin Wound,15.4%
same,viability at 10000 µM,[6]; 386596 Head Wound,67.7%
same,viability at 15000 µM,[6]; 386596 Head Wound,42.7%
same,viability at 30000 µM,[6]; 386596 Head Wound,22.3%
same,killing/disrupting biofilms compared with antibiotics,[7],significantly higher effect than antibiotics
same,viability at 10000 µM,"[8]; read-out: % bacterial viability, MRSA 27060 Left leg, GSH 10 mM",88.8%
same,viability at 15000 µM,"[8]; read-out: % bacterial viability, MRSA 27060 Left leg, GSH 15 mM",65.2%
same,viability at 30000 µM,"[8]; read-out: % bacterial viability, MRSA 27060 Left leg, GSH 30 mM",1.02%
same,viability at 10000 µM,"[8]; read-out: % bacterial viability, MRSA 30616 Chin vesicle, GSH 10 mM",73.1%
same,viability at 15000 µM,"[8]; read-out: % bacterial viability, MRSA 30616 Chin vesicle, GSH 15 mM",58.8%
same,viability at 30000 µM,"[8]; read-out: % bacterial viability, MRSA 30616 Chin vesicle, GSH 30 mM",4.54%
same,viability at 10000 µM,"[8]; read-out: % bacterial viability, MRSA - 0799 DFU, GSH 10 mM",86.7%
same,viability at 15000 µM,"[8]; read-out: % bacterial viability, MRSA - 0799 DFU, GSH 15 mM",75%
same,viability at 30000 µM,"[8]; read-out: % bacterial viability, MRSA - 0799 DFU, GSH 30 mM",33.1%
same,viability at 10000 µM,"[9]; read-out: % bacterial viability, MRAB 1 014754 Urine, GSH 10 mM",73.6%
same,viability at 15000 µM,"[9]; read-out: % bacterial viability, MRAB 1 014754 Urine, GSH 15 mM",55.6%
same,viability at 30000 µM,"[9]; read-out: % bacterial viability, MRAB 1 014754 Urine, GSH 30 mM",20.4%
same,viability at 10000 µM,"[9]; read-out: % bacterial viability, MRAB 2 014801 Catheter, GSH 10 mM",70.8%
same,viability at 15000 µM,"[9]; read-out: % bacterial viability, MRAB 2 014801 Catheter, GSH 15 mM",41.2%
same,viability at 30000 µM,"[9]; read-out: % bacterial viability, MRAB 2 014801 Catheter, GSH 30 mM",2.45%
same,viability at 10000 µM,"[9]; read-out: % bacterial viability, MRAB 3 015069 Skin, GSH 10 mM",84.6%
same,viability at 15000 µM,"[9]; read-out: % bacterial viability, MRAB 3 015069 Skin, GSH 15 mM",63.2%
same,viability at 30000 µM,"[9]; read-out: % bacterial viability, MRAB 3 015069 Skin, GSH 30 mM",37.7%
same,viability at 10000 µM,"[9]; read-out: % bacterial viability, MRAB 4 015095 Hospital Environ, GSH 10 mM",68%
same,viability at 15000 µM,"[9]; read-out: % bacterial viability, MRAB 4 015095 Hospital Environ, GSH 15 mM",57.7%
same,viability at 30000 µM,"[9]; read-out: % bacterial viability, MRAB 4 015095 Hospital Environ, GSH 30 mM",13.8%
same,viability at 10000 µM,"[9]; read-out: % bacterial viability, MRAB 5 015103 Hospital Environ, GSH 10 mM",65.1%
same,viability at 15000 µM,"[9]; read-out: % bacterial viability, MRAB 5 015103 Hospital Environ, GSH 15 mM",51.5%
same,viability at 30000 µM,"[9]; read-out: % bacterial viability, MRAB 5 015103 Hospital Environ, GSH 30 mM",16.7%
same,viability at 10000 µM,"[9]; read-out: % bacterial viability, MRAB 12 016419 Catheter, GSH 10 mM",80.8%
same,viability at 15000 µM,"[9]; read-out: % bacterial viability, MRAB 12 016419 Catheter, GSH 15 mM",49%
same,viability at 30000 µM,"[9]; read-out: % bacterial viability, MRAB 12 016419 Catheter, GSH 30 mM",18.4%
